Like-named read-outs stand apart in the source and are kept apart here.
What was measured:
[1] = tested on: HIV-1BaL; assay: HIV-1BaL infection assay in OPRM1- or control plasmid-transfected TZM-bl cells; format: cell-based; settings: Human immunodeficiency virus 1, TZM-bl, read-out: Inhibition of HIV-1BaL infection EC50, TZM-bl cells containing only control plasmid
[2] = tested on: HIV-1BaL; assay: Anti-HIV-1BaL activity; settings: GHOST CCR5 cells
[3] = target: mouse MOR expressed in CHO cell lines (mMOR-CHO) (Mus musculus, UniProt P42866); assay: MOR competitive radioligand binding assay; settings: ratio of Ki values vs VZMC001
[4] = target: CCR5 (HOS-CCR5 cells) (Homo sapiens, UniProt P51681); assay: Calcium mobilization assay in HOS-CCR5 cells; format: cell-based; settings: for CCR5 activation (agonism) in Ca2+ mobilization assay: within the range of concentrations tested
[5] = tested on: GHOST CCR5 cells; assay: Cytotoxicity; settings: GHOST CCR5 cells; XTT; triplicate
[6] = Cytotoxicity; settings: human
[7] = target: mouse mu opioid receptor (mMOR-CHO) (Mus musculus, UniProt P42866); assay: Calcium mobilization assay in mMOR-CHO cells; format: cell-based; settings: agonist mode, varying concentrations
[8] = tested on: HIV-1BaL Env-pseudotyped Luc-expressing virus (HIV-1-Luc); assay: HIV-1-Luc infection assay in nonstimulated PBMCs; format: cell-based; settings: 1000 nM
[9] = target: rhesus macaque CCR5 expressed in Chem-1 cells (Macaca mulatta, UniProt P61813); assay: CCR5 competitive radioligand binding assay
[10] = tested on: HIV-1BaL Env-pseudotyped Luc-expressing virus; format: cell-based; settings: PHA-stimulated PBMCs; opioid 10 nM
[11] = tested on: HIV; settings: primary human astrocytes, cited from earlier work
[12] = target: CCR5 (Macaca mulatta) (UniProt P61813); assay: radioligand binding; settings: cited from earlier work

Sequence of CCR5 (HOS-CCR5 cells) (P51681 whole entry): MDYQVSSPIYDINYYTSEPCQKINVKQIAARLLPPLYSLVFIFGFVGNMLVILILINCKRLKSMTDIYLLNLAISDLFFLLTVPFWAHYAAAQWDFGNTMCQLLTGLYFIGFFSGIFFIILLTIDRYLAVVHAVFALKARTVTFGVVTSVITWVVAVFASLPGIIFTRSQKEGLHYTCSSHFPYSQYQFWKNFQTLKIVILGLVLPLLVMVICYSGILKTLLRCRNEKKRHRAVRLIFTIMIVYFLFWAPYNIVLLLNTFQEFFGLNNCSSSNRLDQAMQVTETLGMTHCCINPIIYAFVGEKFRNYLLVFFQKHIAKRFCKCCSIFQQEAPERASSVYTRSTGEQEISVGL
Sequence of mouse mu opioid receptor (mMOR-CHO) (P42866 whole entry): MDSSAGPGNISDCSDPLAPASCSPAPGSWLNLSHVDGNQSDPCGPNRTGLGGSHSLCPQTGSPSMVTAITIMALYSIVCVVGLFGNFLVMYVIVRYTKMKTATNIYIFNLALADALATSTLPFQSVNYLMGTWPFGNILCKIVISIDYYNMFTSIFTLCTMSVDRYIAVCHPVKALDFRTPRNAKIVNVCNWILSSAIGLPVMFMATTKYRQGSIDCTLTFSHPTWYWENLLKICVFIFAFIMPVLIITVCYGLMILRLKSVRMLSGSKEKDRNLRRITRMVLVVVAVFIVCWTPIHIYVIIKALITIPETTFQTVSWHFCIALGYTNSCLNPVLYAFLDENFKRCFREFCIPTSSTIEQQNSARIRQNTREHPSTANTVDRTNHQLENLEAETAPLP
Sequence of mouse MOR expressed in CHO cell lines (mMOR-CHO) (P42866 whole entry): as above
Sequence of MIP-1α (P10147 27-92): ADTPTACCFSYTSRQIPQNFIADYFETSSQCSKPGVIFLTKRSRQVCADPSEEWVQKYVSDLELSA

For `CC(C)c1nnc(CCNC(=O)COCC(=O)NCCCCCCCNC(=O)COCC(=O)N[C@@H]2CC[C@@]3(O)[C@H]4Cc5ccc(O)c6c5[C@@]3(CCN4CC3CC3)[C@H]2O6)n1C1C[C@H]2CC[C@@H](C1)N2CC[C@H](NC(=O)C1CCC(F)(F)CC1)c1ccccc1` (some centres unmarked) [VZMC013], the EC50 [1] was 610 nM, the “TI (therapeutic index, TC50/EC50)” value [2] was >1075 and the “fold higher MOR binding affinity than VZMC001” value [3] was 8.6 fold. The “CCR5 activation (agonism) in Ca2+ mobilization assay” value ([4]; agonist mode) was “none of these compounds appeared to activate CCR5”, the “fold more potent than VZMC001 in inhibiting CCL5-stimulated Ca2+ mobilization” value ([4]; ratio of IC50 values vs VZMC001) was 2.2 fold and the “Cytotoxicity TC50” value [5] was >100000 nM. The viability at 6 days, 100 µM [6] was ~100%, the “agonism in Ca2+ mobilization assay” value [7] was “No agonism was observed” and the “Inhibition of HIV-1-Luc infectivity” value [8] was “nearly complete blockade”. For the same compound, the “fold greater CCR5 binding affinity than monovalent VZMC014” value ([9]; ratio of Ki values vs VZMC014) was 12 fold.
For `CC(C)c1nnc(CCNC(=O)COCC(=O)NCCCCCNC(=O)COCC(=O)N[C@@H]2CC[C@@]3(O)[C@H]4Cc5ccc(O)c6c5[C@@]3(CCN4CC3CC3)[C@H]2O6)n1C1C[C@H]2CC[C@@H](C1)N2CC[C@H](NC(=O)C1CCC(F)(F)CC1)c1ccccc1` (some centres unmarked) [VZMC019], the IC50 [9] was > 10000 nM.
“CCL5: C─C motif chemokine ligand 5, CCR5 agonist control [reference compound]” gave an EC50 ([4]; read-out: Ca2+ mobilization agonism EC50, agonist mode, HOS-CCR5 cells with Gqi5) of 155 ± 6.58 nM.
In the case of `C[C@@H](NC(=O)[C@@H](N)Cc1ccc(O)cc1)C(=O)NCC(=O)N(C)[C@@H](Cc1ccccc1)C(=O)NCCO` [DAMGO, [D-Ala^2-MePhe^4-Gly(ol)^5]enkephalin], the “effect on HIV expression” value [10] is reported as “remarkable increases in HIV expression”.
In the case of `Cc1nnc(C(C)C)n1C1C[C@H]2CC[C@@H](C1)N2CC[C@H](NC(=O)C1CCC(F)(F)CC1)c1ccc(NC(=O)COCC(=O)NCCCCCCCNC(=O)COCC(=O)N[C@@H]2CC[C@@]3(O)[C@H]4Cc5ccc(O)c6c5[C@@]3(CCN4CC3CC3)[C@H]2O6)cc1` (some centres unmarked) [VZMC001, reference compound], the RT activity ([2]; concentrations up to 100 μM, 0 μM defined as 100%) is given as 107.6–226.1%, the “Cytotoxicity TC50” value [5] is given as >100000 nM and the “fold higher inhibition of HIV entry than maraviroc” value ([11]; with morphine) is given as 7 fold. For the same compound, the “fold higher inhibition of HIV entry than maraviroc” value ([11]; without morphine) was 3.3 fold.
For MIP-1α (from UniProt P10147), the Kd [12] is given as 0.31 nM.
With `CNC(=O)COCC(=O)NCCCCCCCNC(=O)COCC(=O)NCCc1nnc(C(C)C)n1[C@@H]1C[C@H]2CC[C@@H](C1)N2CC[C@H](NC(=O)C1CCC(F)(F)CC1)c1ccccc1` [VZMC014] the IC50 [4] was 116 nM and the “CCR5 activation (agonism) in Ca2+ mobilization assay” value ([4]; agonist mode) was “none of these compounds appeared to activate CCR5”.
